16 compounds from ChEMBL document CHEMBL1138979, “From pyrroles to pyrrolo[1,2-a]pyrazinones: a new class of mGluR1 antagonists” (Bioorg Med Chem Lett, 2006) can be followed below.

Structures are written as SMILES.

The target of assay [1] is T1, Metabotropic glutamate receptor 1 (Rattus norvegicus, UniProt P23385). The assay can be described thus: Inhibition of rat mGluR1a in CHO cells by CDP-DAG accumulation method. The format is functional, cell-based.
For assay [2], the target named is T1, Metabotropic glutamate receptor 1. Description: Inhibition of rat mGluR1a in CHO cells by CDP-DAG accumulation method upto 100 uM. The format is functional, cell-based.

T1 sequence (P23385 whole entry): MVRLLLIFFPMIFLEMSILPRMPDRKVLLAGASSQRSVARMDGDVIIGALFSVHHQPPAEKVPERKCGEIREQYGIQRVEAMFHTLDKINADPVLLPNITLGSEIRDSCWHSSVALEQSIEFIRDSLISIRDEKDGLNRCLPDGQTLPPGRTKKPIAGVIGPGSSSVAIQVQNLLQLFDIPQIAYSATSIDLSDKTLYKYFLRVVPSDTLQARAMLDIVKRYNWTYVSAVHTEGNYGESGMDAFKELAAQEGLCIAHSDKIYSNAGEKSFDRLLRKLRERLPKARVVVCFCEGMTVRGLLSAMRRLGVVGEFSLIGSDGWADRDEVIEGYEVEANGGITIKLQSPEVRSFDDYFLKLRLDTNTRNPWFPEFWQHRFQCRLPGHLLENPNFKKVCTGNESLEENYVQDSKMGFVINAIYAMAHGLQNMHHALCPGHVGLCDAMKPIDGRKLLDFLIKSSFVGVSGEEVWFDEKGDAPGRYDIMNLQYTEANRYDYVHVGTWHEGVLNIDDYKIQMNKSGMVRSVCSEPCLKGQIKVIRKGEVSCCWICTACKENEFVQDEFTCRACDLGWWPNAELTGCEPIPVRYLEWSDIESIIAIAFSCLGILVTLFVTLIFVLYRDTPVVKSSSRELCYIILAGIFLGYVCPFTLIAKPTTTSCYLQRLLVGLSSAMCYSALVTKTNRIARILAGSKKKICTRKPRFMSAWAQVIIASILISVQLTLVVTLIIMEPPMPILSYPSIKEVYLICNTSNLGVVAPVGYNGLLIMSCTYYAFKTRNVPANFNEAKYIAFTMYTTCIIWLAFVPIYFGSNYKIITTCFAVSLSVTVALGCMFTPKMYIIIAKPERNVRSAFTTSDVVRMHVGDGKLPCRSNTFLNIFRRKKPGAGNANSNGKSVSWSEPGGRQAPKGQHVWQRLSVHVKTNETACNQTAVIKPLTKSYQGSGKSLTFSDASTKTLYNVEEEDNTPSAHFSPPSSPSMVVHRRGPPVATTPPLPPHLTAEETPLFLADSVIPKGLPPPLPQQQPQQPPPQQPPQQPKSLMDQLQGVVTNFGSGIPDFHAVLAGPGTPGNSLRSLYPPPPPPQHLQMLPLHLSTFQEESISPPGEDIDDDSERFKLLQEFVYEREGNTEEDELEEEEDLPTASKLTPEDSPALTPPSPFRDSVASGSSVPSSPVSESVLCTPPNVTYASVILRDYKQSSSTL

In turn, `Cc1c(C(=O)OC(C)C(C)(C)C)cn2c1C(=O)N(CCCNC(=O)c1ccncc1)CC2` (stereo unspecified) gave an IC50 in assay [1] of 398 nM.

As to `Cc1c(C(=O)OC(C)C(C)(C)C)cn2c1C(=O)N(CCCN1C(=O)c3ccccc3C1=O)CC2` (stereo unspecified), in assay [1], 15.8 nM corresponded to half-maximal inhibition (IC50). This IC50 lies about 25-fold lower than the previous one.

Take `CCCN1CCn2cc(C(=O)OC(C)C(C)(C)C)c(C)c2C1=O` (stereo unspecified): the IC50 in assay [1] was 39.8 nM.

For the compound `Cc1c(C(=O)OC(C)C(C)(C)C)cn2c1C(=O)N(CCF)CC2` (stereo unspecified), the concentration for half-maximal inhibition (IC50) in assay [1] was 20 nM.

For `Cc1c(C(=O)OC(C)C(C)(C)C)cn2c1C(=O)N(Cc1ccccc1)CC2` (stereo unspecified), the half-maximal inhibitory concentration (IC50) in assay [1] is 251 nM.

With `CCNC(=O)NCCCN1CCn2cc(C(=O)OC(C)C(C)(C)C)c(C)c2C1=O` (stereo unspecified), inhibition in assay [1] was half-maximal at 398 nM (IC50).

`CC(=O)NCCCN1CCn2cc(C(=O)OC(C)C(C)(C)C)c(C)c2C1=O` (stereo unspecified) showed an IC50 in assay [1] of 501 nM.

`Cc1c(C(=O)OC(C)C(C)(C)C)cn2c1C(=O)N(CCCN(C)C(=O)c1ccncc1)CC2` (stereo unspecified): the concentration for half-maximal inhibition (IC50) in assay [1] is 3160 nM.

`Cc1c(C(=O)OC(C)C(C)(C)C)cn2c1C(=O)N(CCCN)CC2` (stereo unspecified): the IC50 entry in assay [2] is given as “Not Active”.

Consider `Cc1c(C(=O)OC(C)C(C)(C)C)cn2c1C(=O)N(CC(F)F)CC2` (stereo unspecified), for which, in assay [1], the IC50 is 25.1 nM.

In assay [1], `Cc1c(C(=O)OC(C)C(C)(C)C)cn2c1C(=O)N(N1CCOCC1)CC2` (stereo unspecified) had a concentration for half-maximal inhibition (IC50) of 3160 nM.

In assay [1], `C=CCN1CCn2cc(C(=O)OC(C)C(C)(C)C)c(C)c2C1=O` (stereo unspecified) showed an IC50 of 20 nM. Against the preceding compound, the IC50 is about 160-fold lower.

As for `Cc1c(C(=O)OC(C)C(C)(C)C)cn2c1C(=O)N(CCNC(=O)OC(C)(C)C)CC2` (stereo unspecified), the concentration for half-maximal inhibition (IC50) in assay [1] is 398 nM. Compared with the last compound, the IC50 is about 20-fold higher.

Turning to `COCCN1CCn2cc(C(=O)OC(C)C(C)(C)C)c(C)c2C1=O` (stereo unspecified), in assay [1], the midpoint of inhibition, the IC50, lay at 251 nM.

Regarding `Cc1c(C(=O)OC(C)C(C)(C)C)cn2c1C(=O)NCC2` (stereo unspecified), in assay [2], the IC50 entry is given as “Not Active”.

In assay [1], `Cc1c(C(=O)OC(C)C(C)(C)C)cn2c1C(=O)N(CC1CC1)CC2` (stereo unspecified) gave a half-maximal inhibitory concentration (IC50) of 20 nM.

As a reminder, the IC50 is the point on the concentration scale where inhibition reaches its midpoint.
